Data reported in US11214586B2, “Rhodamine triplet state complex and preparation and photodynamic therapy (PDT) study thereof” (SOUTHERN UNIVERSITY OF SCIENCE AND TECHNOLOGY, priority 2018, dated 2022).

Columns and labels:
MCF-7 tumor-bearing mice = test: In vivo NIRF imaging, biodistribution and tumor accumulation
Method: The procedures were approved by the Animal Care and Use Committee (Shenzhen Institutes of Advanced Technology, Chinese Academy of Sciences). Four-8-week-old female BALB/c mice or nude mice (Vital River Laboratory Animal Technology Co. Ltd., China) were subcutaneously injected with MCF-7 cells (1×10^6) in the flank region.
The Maestro GNIR Flex imaging system and analysis with software from CRi was used to image tumor-bearing animals over time following i.v. treatment with Ir-Rho (200 μM, 150 μl). At each time point, the mouse was imaged at 600 nm excitation and 650 nm emission. At 24 h post injection, tumors and major organs were excised for ex vivo NIRF imaging to determine the tissue distribution of Ir-Rho. All main organs were cut with similar thickness and imaged at 600 nm excitation and 650 nm emission. The average fluorescence intensity of organs was from a region of interest (ROI) placed over the area of the organs on the image.

[1] = Singlet oxygen emission at about 1270 nm; format: physicochemical; settings: in CH3CN
Method: Singlet oxygen emission was detected by using FLS-980 spectrofluorometer. All of the compounds were dissolved in CH3CN. The absorbance at 532 nm was adjusted to be around 1.7 for all the compounds. Upon measurements, an 850 nm long-pass filter was inserted in between the sample and the detector to avoid many high-order diffraction from the visible emission.

MCF-7 cells = test: Phototoxicity, CCK-8 assay and calcein-AM/PI staining; format: cell-based, human; settings: 11-W lamp
Method: • 1. MCF-7 cells were seeded at 8×10^3-1×10^4 cells/well in 96 well plates then incubated for 24 h in 5% CO2 at 37° C. The stock solutions of the complexes(10 mM in DMSO) were diluted to appropriate concentrations with the complete medium and added to the cells to give final complexes concentrations (1, 2, 5, 10 μM). After incubation for 2 h, the well plate were irradiated with 11 W lamp 30 min. To achieve more uniform irradiation, the entire well plate was gently orbited on the shaker. After the irradiation, the cells were again incubated for 2 h, after which the cytotoxicity was determined by CCK8 assay and expressed as a percent of the controls (cells exposed to light in the absence of the complexes). • 2. The MCF-7 cells(500 cells/well) were seeded in eight-well chambered coverglasses (lab-Tek, Nunc, USA), and then incubated for 24 h in 5% CO2 at 37° C. Next, added to complexes(rho-bpy, rho-bpy-Pt-ph, rho-bpy-Rh-ppy, rho-bpy-Re and rho-bpy-Ir-ppy) in medium make the final concentrations of 5 μM complexes. After incubation for 2 h, the eight-well plate were irradiated with 11 W lamp 30 min. The flowing, fixed with 4% paraformaldehyde solution. After staining with calcein-AM and (Propidium iodide) PI, Leica TCS SP5 confocal laser scanning microscope (GER) was used to observe the viable and dead cells.

[2] = ex vivo NIRF, 24 h post-injection

SMILES: CCN(CC)c1ccc2c(-c3ccnc(-c4cc(C)ccn4)c3)c3ccc(=[N+](CC)CC)cc-3oc2c1.F[P-](F)(F)(F)(F)F.F[P-](F)(F)(F)(F)F.c1ccc(-c2cccc[c]2[Ir+][c]2ccccc2-c2ccccn2)nc1 [Ir-Rho]
- liver uptake (MCF-7 tumor-bearing mice; [2]): relatively low liver uptake
- tumor accumulation (MCF-7 tumor-bearing mice; [2]): good tumor accumulation
- time of peak tumor uptake (MCF-7 tumor-bearing mice; i.v. injection via the tail vein, 200 μM, 150 μl): 24 h
- 1O2 emission at about 1270 nm [1]: Remarkable
- cell death upon irradiation (MCF-7 cells; concentration of 10 μM): Significant cell death
- PDT performance, ranking (MCF-7 cells; among M-Rho): best PDT performance
